Assay results published in patent US12049483B2, “Selective and noncovalent inhibitors of oncogenic RAS mutants” (New York University, priority 2020, dated 2024).
Peptide text beside a SMILES is read from it. * marks the point of attachment. Cbz = O=C(OCc1ccccc1)*

Assays:
KRAS(G12C) [1] = molecular target: T1, KRAS(G12C) (Homo sapiens, UniProt P01116, G12C); assay: Degradation of KRAS in RASless MEFs by VHL-monobody fusions; format: cell-based, mouse; set-up: expressed in transfected cells; host or cells: RASless mouse embryonic fibroblasts; settings: MLN4924 1 μM or MG132 5 μM for 24 hours
Protocol: (§1) Monobody development. General procedures for the development of monobodies against purified protein targets have been described previously. After four rounds of phage display library selection using biotinylated KRAS(G12C) at concentrations of 100 nM, 100 nM, 50 nM and 50 nM, the genes encoding monobodies from the enriched phage pool were transferred to a yeast display vector, which was used to construct yeast-display libraries. The yeast display libraries were sorted using a Bio-Rad S3e fluorescence-activated cell sorter or a […] II cell sorter (BD Biosciences). […] Single clones were then screened for selective binding to RAS mutants. The expression of monobodies on the surface of yeast cells were detected using mouse anti-VS and anti-mouse IgG-FITC conjugate. Target binding was detected with neutravidin Dylight650. Yeast cells were analyzed using an iQue flow cytometer (Sartorius). […]
Cell signaling assay and quantification of immunoblots. […] The supernatant was collected and measured for total protein amount using BCA assay (Thermo Scientific; 23227). […] The proteins were then transferred from the gel to a low fluorescence background PVDF membrane (Millipore; IPFL00010) or regular PVDF membrane (Millipore; ISEQ00010) depending on whether fluorescence or chemiluminescence detection was performed. […] The total RAS level was detected using a pan-RAS antibody (SCBT, sc-166691). […]
Target sequence in this assay (P01116 1-188 isoform P01116-2 G12C): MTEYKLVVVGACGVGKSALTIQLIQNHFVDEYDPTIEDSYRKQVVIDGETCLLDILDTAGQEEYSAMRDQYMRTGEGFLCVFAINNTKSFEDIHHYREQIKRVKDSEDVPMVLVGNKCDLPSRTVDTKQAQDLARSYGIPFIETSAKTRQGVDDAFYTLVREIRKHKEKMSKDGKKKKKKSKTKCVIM

KRAS(G12C) [2] = molecular target: T1, KRAS(G12C); assay: Yeast display binding titration, KRAS(G12C); set-up: KRAS4B residues 1-174 containing G12C, G12V, G12D, G13D, Q61L, WT; His6 (N, cleaved yes); Avi-tag (N, cleaved yes); made in house; host or cells: E. coli BL21(DE3); settings: ARS1620 added during nucleotide exchange
Protocol: Nucleotide exchange of RAS. Purified RAS proteins used in binding experiment and crystallization were prepared by diluting stock protein (typically containing 20-250 μM RAS) 25 times with 20 mM Tris-Cl buffer pH 7.5 containing 5 mM EDTA, 0.1 mM DTT and 1 mM final concentration of a nucleotide (GDP or GTPγS). Samples were incubated at 30° C. for 30 minutes. MgCl2 was then added to the sample at a final concentration of 20 mM and the solution was further incubated on ice for at least 5 minutes prior to use.
as §1
Target sequence in this assay (P01116 1-174 isoform P01116-2 G12C): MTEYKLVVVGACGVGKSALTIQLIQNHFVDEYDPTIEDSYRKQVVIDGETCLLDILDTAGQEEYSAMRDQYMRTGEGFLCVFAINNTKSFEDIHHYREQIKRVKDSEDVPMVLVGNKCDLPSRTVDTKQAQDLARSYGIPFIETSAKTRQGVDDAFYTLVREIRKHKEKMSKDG

ERK activation (pERK) = assay: ERK activation in dox-inducible monobody-expressing cell lines; format: cell-based; settings: H358; after 24 and 48 hours; dox-induced expression or ARS1620 treatment
Protocol: Cell signaling assay and quantification of immunoblots. Cells were lysed in RIPA buffer (50 mM Tris-Cl pH 8, 150 mM NaCl, 5 mM EDTA pH8, 0.1% SDS, 1% NP40) supplemented with protease inhibitors (Roche; 5892991001) and phosphatase inhibitors (54 mM β-glycerophosphate, 10 mM NaF, 1 mM sodium vanadate) for 15 minutes on ice, and centrifuged at 15,000 g for 15 minutes. The supernatant was collected and measured for total protein amount using BCA assay (Thermo Scientific; 23227). Lysate (7-20 μg per well) was loaded onto a pre-cast SDS gel (BioRad; 456-1096) followed by electrophoresis. The proteins were then transferred from the gel to a low fluorescence background PVDF membrane (Millipore; IPFL00010) or regular PVDF membrane (Millipore; ISEQ00010) depending on whether fluorescence or chemiluminescence detection was performed. Phospho-ERK was detected using a rabbit anti-pERK antibody (Cell Signaling; 9101S) and total ERK was detected using a rabbit anti-ERK antibody (Cell Signaling; 9102S). Monobody expression was detected using mouse anti-Flag antibody (Sigma; F3165) or anti-HA tag antibody (BioLegend; 901516). Loading control was detected with primary antibody against tubulin-alpha (Thermo Scientific, 62204) or against cytochrome oxidase (COX IV) (Li-Cor, 926-42214). The total RAS level was detected using a pan-RAS antibody (SCBT, sc-166691). The KRAS level was determined using a KRAS-specific antibody (Sigma, WH0003845M1). For fluorescence detection of immunoblots, the membranes were imaged with a Licor Odyssey Clx imager (Li-Cor Bioscience) using IRDye anti-Rabbit 800CW and anti-Mouse 680LT (Li-Cor Bioscience, 926-32211 and 926-68020, respectively) as secondary antibodies. […] Band intensities of western blot were analyzed with Image Studio Lite version 5.2 (Li-Cor Bioscience). To quantify protein abundance in the degradation experiment, the intensities of pERK, RAS, KRAS, and Flag/HA tag bands were first normalized against the loading control of the perspective blot, which were either tubulin-α, COX IV or total ERK, followed by subsequent normalization to the zero time point. […]

Structure (SMILES)	effect on RAS degradation by VHL-monobody fusion (KRAS(G12C) [1])	binding of 12VC1 to KRAS(G12C) after reaction with ARS1620 (KRAS(G12C) [2])	ERK activation in H358 cells (ERK activation (pERK))
CC(C)C[C@@H](C=O)NC(=O)[C@H](CC(C)C)NC(=O)[C@H](CC(C)C)NC(=O)OCc1ccccc1 [MG132] (Cbz-Leu-Leu-Leu-aldehyde)	rescued		
C=CC(=O)N1CCN(c2ncnc3c(F)c(-c4c(O)cccc4F)c(Cl)cc23)CC1 [ARS1620]		abolished	effectively inhibited
NS(=O)(=O)OC[C@@H]1C[C@@H](n2ccc3c(N[C@H]4CCc5ccccc54)ncnc32)C[C@@H]1O [MLN4924]	rescued		
